{"source": "PubChem BioAssay (NCI)", "assay_in_all_cases": "NCI-60 cell line screen, 48 h", "key": {"[1]": {"tested_on": "T-47D breast"}, "[2]": {"tested_on": "COLO 205 colon"}, "[3]": {"tested_on": "K-562 leukemia"}, "[4]": {"tested_on": "BT-549 breast"}, "[5]": {"tested_on": "MALME-3M melanoma"}, "[6]": {"tested_on": "TK-10 renal"}, "[7]": {"tested_on": "MCF7 breast"}, "[8]": {"tested_on": "MOLT-4 leukemia"}, "[9]": {"tested_on": "HCT-116 colon"}, "[10]": {"tested_on": "HOP-92 NSCLC"}, "[11]": {"tested_on": "SF-539 CNS"}, "[12]": {"tested_on": "NCI-H460 lung"}, "[13]": {"tested_on": "M14 melanoma"}, "[14]": {"tested_on": "OVCAR-8 ovarian"}, "[15]": {"tested_on": "OVCAR-3 ovarian"}, "[16]": {"tested_on": "SW-620 colon"}, "[17]": {"tested_on": "U251 CNS"}, "[18]": {"tested_on": "HT29 colon"}, "[19]": {"tested_on": "MDA-MB-435"}, "[20]": {"tested_on": "NCI-H23 lung"}, "[21]": {"tested_on": "HCC-2998 colon"}, "[22]": {"tested_on": "UO-31 renal"}, "[23]": {"tested_on": "RPMI-8226 leukemia"}, "[24]": {"tested_on": "786-0 renal"}, "[25]": {"tested_on": "SK-MEL-2 melanoma"}, "[26]": {"tested_on": "HOP-62 NSCLC"}, "[27]": {"tested_on": "ACHN renal"}, "[28]": {"tested_on": "NCI-H226 lung"}, "[29]": {"tested_on": "HCT-15 colon"}, "[30]": {"tested_on": "IGROV1 ovarian"}, "[31]": {"tested_on": "OVCAR-5 ovarian"}, "[32]": {"tested_on": "SF-295 CNS"}, "[33]": {"tested_on": "HS 578T breast"}, "[34]": {"tested_on": "KM12 colon"}, "[35]": {"tested_on": "OVCAR-4 ovarian"}, "[36]": {"tested_on": "SR leukemia"}, "[37]": {"tested_on": "SK-MEL-5 melanoma"}, "[38]": {"tested_on": "MDA-N"}, "[39]": {"tested_on": "MDA-MB-231 breast"}, "[40]": {"tested_on": "NCI-H522 lung"}, "[41]": {"tested_on": "UACC-257 melanoma"}, "[42]": {"tested_on": "SK-OV-3 ovarian"}, "[43]": {"tested_on": "DU-145 prostate"}, "[44]": {"tested_on": "SF-268 CNS"}, "[45]": {"tested_on": "UACC-62 melanoma"}, "[46]": {"tested_on": "SNB-19 CNS"}, "[47]": {"tested_on": "SNB-75 CNS"}, "[48]": {"tested_on": "NCI/ADR-RES ovarian"}, "[49]": {"tested_on": "SN12C renal"}, "[50]": {"tested_on": "RXF 393 renal"}, "[51]": {"tested_on": "A549 NSCLC"}, "[52]": {"tested_on": "EKVX NSCLC"}, "[53]": {"tested_on": "PC-3 prostate"}, "[54]": {"tested_on": "SK-MEL-28 melanoma"}, "[55]": {"tested_on": "CAKI-1 renal"}, "[56]": {"tested_on": "A498 renal"}}, "note": "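Step 1: Grow cells in 96-well plates. Step 2: Expose to compound for 48 hours at 5 concentrations. Step 3: Interpolate endpoints linearly; if unreached, use highest concentration. TGI marks complete inhibition of growth.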"}
{"compound": "CC1=c2c(oc3cc(O)c(Nc4c(C)cc(O)cc4O)c(C)c23)=CC(=O)C1=Nc1c(C)cc(O)cc1O", "values": [{"measurement": "TGI", "setting": "[1]", "value": "> 100", "unit": "µM"}, {"measurement": "TGI", "setting": "[2]", "value": 42.1, "unit": "µM"}, {"measurement": "TGI", "setting": "[3]", "value": "> 100", "unit": "µM"}, {"measurement": "TGI", "setting": "[4]", "value": "> 100", "unit": "µM"}, {"measurement": "TGI", "setting": "[5]", "value": 54.3, "unit": "µM"}, {"measurement": "TGI", "setting": "[6]", "value": "> 100", "unit": "µM"}, {"measurement": "TGI", "setting": "[7]", "value": "> 100", "unit": "µM"}, {"measurement": "TGI", "setting": "[8]", "value": "> 100", "unit": "µM"}, {"measurement": "TGI", "setting": "[9]", "value": 68.5, "unit": "µM"}, {"measurement": "TGI", "setting": "[10]", "value": "> 100", "unit": "µM"}, {"measurement": "TGI", "setting": "[11]", "value": 56.3, "unit": "µM"}, {"measurement": "TGI", "setting": "[12]", "value": "> 100", "unit": "µM"}, {"measurement": "TGI", "setting": "[13]", "value": 85.3, "unit": "µM"}, {"measurement": "TGI", "setting": "[14]", "value": "> 100", "unit": "µM"}, {"measurement": "TGI", "setting": "[15]", "value": 55.3, "unit": "µM"}, {"measurement": "TGI", "setting": "[16]", "value": "> 100", "unit": "µM"}, {"measurement": "TGI", "setting": "[17]", "value": "> 100", "unit": "µM"}, {"measurement": "TGI", "setting": "[18]", "value": 94.9, "unit": "µM"}, {"measurement": "TGI", "setting": "[19]", "value": 33.5, "unit": "µM"}, {"measurement": "TGI", "setting": "[20]", "value": 50.4, "unit": "µM"}, {"measurement": "TGI", "setting": "[21]", "value": 55.7, "unit": "µM"}, {"measurement": "TGI", "setting": "[22]", "value": "> 100", "unit": "µM"}, {"measurement": "TGI", "setting": "[23]", "value": "> 100", "unit": "µM"}, {"measurement": "TGI", "setting": "[24]", "value": "> 100", "unit": "µM"}, {"measurement": "TGI", "setting": "[25]", "value": "> 100", "unit": "µM"}, {"measurement": "TGI", "setting": "[26]", "value": "> 100", "unit": "µM"}, {"measurement": "TGI", "setting": "[27]", "value": "> 100", "unit": "µM"}, {"measurement": "TGI", "setting": "[28]", "value": "> 100", "unit": "µM"}, {"measurement": "TGI", "setting": "[29]", "value": "> 100", "unit": "µM"}, {"measurement": "TGI", "setting": "[30]", "value": "> 100", "unit": "µM"}, {"measurement": "TGI", "setting": "[31]", "value": "> 100", "unit": "µM"}, {"measurement": "TGI", "setting": "[32]", "value": 70.1, "unit": "µM"}, {"measurement": "TGI", "setting": "[33]", "value": "> 100", "unit": "µM"}, {"measurement": "TGI", "setting": "[34]", "value": 94, "unit": "µM"}, {"measurement": "TGI", "setting": "[35]", "value": "> 100", "unit": "µM"}, {"measurement": "TGI", "setting": "[36]", "value": "> 100", "unit": "µM"}, {"measurement": "TGI", "setting": "[37]", "value": 35.1, "unit": "µM"}, {"measurement": "TGI", "setting": "[38]", "value": 40, "unit": "µM"}, {"measurement": "TGI", "setting": "[39]", "value": "> 100", "unit": "µM"}, {"measurement": "TGI", "setting": "[40]", "value": 63.1, "unit": "µM"}, {"measurement": "TGI", "setting": "[41]", "value": "> 100", "unit": "µM"}, {"measurement": "TGI", "setting": "[42]", "value": "> 100", "unit": "µM"}, {"measurement": "TGI", "setting": "[43]", "value": "> 100", "unit": "µM"}, {"measurement": "TGI", "setting": "[44]", "value": "> 100", "unit": "µM"}, {"measurement": "TGI", "setting": "[45]", "value": "> 100", "unit": "µM"}, {"measurement": "TGI", "setting": "[46]", "value": "> 100", "unit": "µM"}, {"measurement": "TGI", "setting": "[47]", "value": 88.3, "unit": "µM"}, {"measurement": "TGI", "setting": "[48]", "value": "> 100", "unit": "µM"}, {"measurement": "TGI", "setting": "[49]", "value": 73.7, "unit": "µM"}, {"measurement": "TGI", "setting": "[50]", "value": "> 100", "unit": "µM"}, {"measurement": "TGI", "setting": "[51]", "value": "> 100", "unit": "µM"}, {"measurement": "TGI", "setting": "[52]", "value": "> 100", "unit": "µM"}, {"measurement": "TGI", "setting": "[53]", "value": "> 100", "unit": "µM"}, {"measurement": "TGI", "setting": "[54]", "value": "> 100", "unit": "µM"}, {"measurement": "TGI", "setting": "[55]", "value": "> 100", "unit": "µM"}, {"measurement": "TGI", "setting": "[56]", "value": "> 100", "unit": "µM"}]}
